Test results as given in patent publication US20030215896A1, “Gamma secretase substrates and in vitro assays” (priority 2003, published 2003).

What was measured:
[1] = test system: γ-secretase (HeLa cell membranes); test: Extraction of γ-secretase activity from HeLa cell membranes with CHAPSO detergent; format: biochemical, human
Method: HeLa S3 cells from American Type Culture Collection (Rockville, Md.) were grown in bioreactors (Analytical Biological Services; Wilmington, Del.) in 90% DMEM, 10% fetal bovine serum, 2 mM glutamine and 100 μg/ml each of penicillin and streptomycin. […] The cells were broken by single-pass through a French Press (Spectronic Instruments, Rochester, N.Y.). Cell debris and nuclei were removed by centrifugation at 800×g for 10 minutes. The supernatant solutions were centrifuged at 100,000×g for 60 minutes. The ensuing pellets were resuspended in buffer A and the centrifugation was repeated. The final membrane pellets were resuspended in buffer A to yield a protein concentration of approximately 12 mg/ml. All procedures were performed at 4° C. The membranes were stored at −70° C. […] The supernatant solutions (solubilized fractions) and the pellets (membrane fractions) were then assayed for γ-secretase activity with the SEQ. ID. NO. 9 substrate. […] The ensuing supernatant solution provides “solubilized γ-secretase”. […] In vitro assays measuring γ-secretase activity were performed using cell membranes or as “solubilized γ-secretase”. In one reaction, SEQ. ID. […] ID. NO. 9 substrate at 37° C. in the presence of detergent in buffer B.

[2] = test system: γ-secretase (HeLa cell membranes); test: In vitro γ-secretase assay with HeLa cell membranes and SEQ. ID. NO. 9 substrate in presence of detergent, ECL; format: biochemical, human; details: for Effect of detergent on in vitro γ-secretase cleavage of substrate: SEQ. ID. NO. 9 substrate
Method: HeLa S3 cells from American Type Culture Collection (Rockville, Md.) were grown in bioreactors (Analytical Biological Services; Wilmington, Del.) in 90% DMEM, 10% fetal bovine serum, 2 mM glutamine and 100 μg/ml each of penicillin and streptomycin. Frozen HeLa S3 cells were resuspended in buffer A (50 mM MES, pH 6.0, 5 mM MgCl2, 5 mM CaCl2, 150 mM KCl) containing “complete” protease inhibitor cocktail (Boehringer Mannheim, Indianapolis, Ind.). The cells were broken by single-pass through a French Press (Spectronic Instruments, Rochester, N.Y.). Cell debris and nuclei were removed by centrifugation at 800×g for 10 minutes. The supernatant solutions were centrifuged at 100,000×g for 60 minutes. The ensuing pellets were resuspended in buffer A and the centrifugation was repeated. The final membrane pellets were resuspended in buffer A to yield a protein concentration of approximately 12 mg/ml. All procedures were performed at 4° C. The membranes were stored at −70° C.
In vitro assays measuring γ-secretase activity were performed using cell membranes or as “solubilized γ-secretase”. In one reaction, SEQ. ID. NO. 9 substrate (1.7 μM) was incubated with cell membranes (0.5 mg/ml) in presence of detergent in buffer B (50 mM PIPES, pH 7.0, 5 mM MgCl2, 5 mM CaCl2, 150 mM KCl) at 37° C. In another reaction, supernatant solution from CHAPSO-extracted HeLa cell membranes (“solubilized γ-secretase”) was incubated with SEQ. ID. NO. 9 substrate at 37° C. in the presence of detergent in buffer B. Generally, 0.25% CHAPSO was provided as the detergent. The reactions were stopped by adding RIPA (150 mM NaCl, 1.0% NP-40, 0.5% DOC, 0.1% SDS, 50 mM Tris HCl, pH 8.0).
The samples were centrifuged and the supernatant solutions were assayed for the Aβ peptides by ECL. The Aβ40- and Aβ42-related products from γ-secretase-mediated processing of SEQ. ID. NO.
SEQ. ID. NO. 9 substrate (1.7 μM) was incubated with cell membranes (0.5 mg/ml) in presence of CHAPSO, CHAPS or Triton X-100 (0, 0.125, 0.25, 0.5, or 1%) in buffer B at 37° C.

[3] = test system: γ-secretase (HeLa cell membranes); test: as above; format: biochemical, human; details: detergent 0.75%
γ-secretase = γ-secretase (Cricetulus griseus, UniProt G3HNF2); test: Radiolabeling pulse-chase of CHO/APP695 cells, 4G8 immunoprecipitation, SDS-PAGE; format: cell-based, Chinese hamster; details: 1 μM, data not shown
Method: The effect of a γ-secretase inhibitor on γ-secretase activity was measured using Chinese hamster ovary fibroblasts that stably express APP695 (CHO/APP695, provided by Dr. S. Sisodia (University of Chicago, Chicago, Ill.)). CHO/APP695 were grown in 90% DMEM, 10% fetal bovine serum, 2 mM glutamine, 100 μg/ml each of penicillin and streptomycin, and 0.2 mg/ml G418. CHO/APP695 cells were seeded in 96-well dishes at 2×10^4 cells/well. Aβ-peptide formation was detected by either ECL or using radiolabeling.
For the radiolabeling experiments, CHO/APP695 cells (in 100 mm dishes) were grown to 70% confluency in complete media. Afterwards, these cells were cultured±1 μM L-685,458 for 24 hours, switched to Met-free medium (±1 μM L-685,458) for 20 minutes, pulsed with 1 mCi/ml of S^35-Met (Amersham Life Sciences, Inc, Arlington Heights, Ill.) in Met-free medium (±1 μM L-685,458) for 2 hours, and subsequently chased in complete medium (±1 μM L-685,458) for 45 minutes. The cells were washed with Hanks balanced salt solution and lysed with 1 ml of RIPA. The insoluble residue was removed by centrifugation. The 4G8 antibody (final concentration, 2 μg/ml) was added to the supernatant fractions. The samples were gently rotated overnight at 4° C. Protein G-agarose beads (Pharmacia Biotech, Piscataway, N.J.) were added the next day, the samples were rotated for an additional 2 hours and then centrifuged. […]

[4] = test system: solubilized γ-secretase (CHAPSO-extracted HeLa cell membranes); test: In vitro γ-secretase assay with "solubilized γ-secretase" and SEQ. ID. NO. 9 substrate, ECL; format: biochemical, human; details: solubilized γ-secretase
Method: (§1) The ensuing supernatant solution provides “solubilized γ-secretase”.
(§2) In vitro assays measuring γ-secretase activity were performed using cell membranes or as “solubilized γ-secretase”. In one reaction, SEQ. ID. NO. […] ID. NO.

[5] = molecular target: T1, solubilized γ-secretase (CHAPSO-extracted HeLa cell membranes) (Homo sapiens, UniProt P49768); test: as above; format: biochemical; details: assaying for Aβ40 cleavage, FIG. 2A; read-out: Apparent Km value of solubilized γ-secretase for substrate
T1 construct: ID; NO; 9 su
Method: as §1, §2

[6] = molecular target: solubilized γ-secretase (supernatant solution from 1% CHAPSO-extracted HeLa S3 cell membranes); test: cell-based or functional assay

Compound	Effect of detergent on in vitro γ-secretase cleavage of substrate ([2]; HeLa cell membranes)	M-Aβ 40 production ([2]; detergent 0.125%)	M-Aβ 40 production ([2]; detergent 0.25%)	M-Aβ 40 production ([2]; detergent 0.5%)	M-Aβ 40 production ([2]; detergent 1%)	M-Aβ 40 production [3]	other results
C[C@H](CCC(=O)NCCC[N+](C)(C)CC(O)CS(=O)(=O)[O-])[C@H]1CC[C@H]2[C@@H]3[C@H](O)C[C@@H]4C[C@H](O)CC[C@]4(C)[C@H]3C[C@H](O)[C@]12C (some centres unmarked) [CHAPSO]	promotes cleavage at the γ-secretase scissile bond	2.2 ECL signal × 10^−6	8.74 ECL signal × 10^−6	1.22 ECL signal × 10^−6	0.03 ECL signal × 10^−6	0.07 ECL signal × 10^−6	% of total γ-secretase activity in Membranes fraction ([1]; CHAPSO 0.25%): 97%; % of total γ-secretase activity in Solubilized fraction ([1]; CHAPSO 0.25%): 3%; % of total γ-secretase activity in Membranes fraction ([1]; CHAPSO 0.50%): 65%; % of total γ-secretase activity in Solubilized fraction ([1]; CHAPSO 0.50%): 35%; % of total γ-secretase activity in Membranes fraction ([1]; CHAPSO 1.00%): 51%; % of total γ-secretase activity in Membranes fraction ([1]; CHAPSO 2.0%): 50%; % of total γ-secretase activity in Solubilized fraction ([1]; CHAPSO 2.0%): 50%; Detergent concentration giving optimal γ-secretase activity ([2]; HeLa cell membranes): 0.25%
C[C@H](CCC(=O)NCCC[N+](C)(C)CCCS(=O)(=O)[O-])[C@H]1CC[C@H]2[C@@H]3[C@H](O)C[C@@H]4C[C@H](O)CC[C@]4(C)[C@H]3C[C@H](O)[C@]12C [CHAPS]	promotes cleavage at the γ-secretase scissile bond	0.03 ECL signal × 10^−6	3.21 ECL signal × 10^−6	0.27 ECL signal × 10^−6	0.03 ECL signal × 10^−6	0.04 ECL signal × 10^−6	
CC(C)C[C@H](NC(=O)[C@H](Cc1ccccc1)C[C@@H](O)[C@H](Cc1ccccc1)NC(=O)OC(C)(C)C)C(=O)N[C@@H](Cc1ccccc1)C(N)=O [L-685,458]							Intracellular accumulation of APP fragments (α-CTF, β-CTF) (γ-secretase): intracellular accumulation of APP immunoreactive fragments that co-migrate with α-CTF and β-CTF
SEQ. ID. NO. 9 substrate: γ-secretase substrate: fusion protein of N-terminal Met, APP597-695 (β-CTF domain) and C-terminal Flag tag DYKDDDDK							Aβ42/Aβ40 cleavage ratio [4]: approximately 0.1; Km [5]: ~1 µM; Aβ42/Aβ40 cleavage ratio ([2]; intact membranes): approximately 0.1
Triton X-100	fails to potentiate in vitro γ-secretase activity	0.02 ECL signal × 10^−6	0.02 ECL signal × 10^−6	0.02 ECL signal × 10^−6	0.02 ECL signal × 10^−6	0.02 ECL signal × 10^−6	
pepstatin (peptide)							IC50 for inhibiting the generation of the Aβ40 terminus (in vitro γ-secretase assay, ECL) [6]: 4 µM; IC50 for inhibiting the generation of the Aβ42 terminus (in vitro γ-secretase assay, ECL) [6]: 5.9 µM
